Data: PubChem BioAssay (NCI)
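Where inhibition never reached the appropriate level, the endpoint shown equals the highest concentration tested. Otherwise, values were interpolated linearly from a five-concentration, 48-hour dose response in 96-well plates. TGI denotes the concentration required for complete inhibition of growth.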

Tests used:
Test in all cases: growth of human tumour cells (NCI), 48 h
[1] = tested on: OVCAR-5 ovarian
[2] = tested on: A549 NSCLC
[3] = tested on: SNB-19 CNS
[4] = tested on: EKVX NSCLC
[5] = tested on: SNB-75 CNS
[6] = tested on: HCT-15 colon
[7] = tested on: HCC-2998 colon
[8] = tested on: RXF 393 renal
[9] = tested on: HOP-92 NSCLC
[10] = tested on: OVCAR-4 ovarian
[11] = tested on: HCT-116 colon
[12] = tested on: SF-295 CNS
[13] = tested on: HOP-62 NSCLC
[14] = tested on: UACC-257 melanoma
[15] = tested on: SW-620 colon
[16] = tested on: IGROV1 ovarian
[17] = tested on: OVCAR-3 ovarian
[18] = tested on: NCI-H522 lung
[19] = tested on: COLO 205 colon
[20] = tested on: MOLT-4 leukemia
[21] = tested on: CAKI-1 renal
[22] = tested on: SF-268 CNS
[23] = tested on: UO-31 renal
[24] = tested on: SF-539 CNS
[25] = tested on: KM12 colon
[26] = tested on: U251 CNS
[27] = tested on: SK-MEL-2 melanoma
[28] = tested on: 786-0 renal
[29] = tested on: SK-MEL-28 melanoma
[30] = tested on: UACC-62 melanoma
[31] = tested on: SR leukemia
[32] = tested on: A498 renal
[33] = tested on: SN12C renal
[34] = tested on: DMS 273 small cell lung
[35] = tested on: TK-10 renal
[36] = tested on: KM20L2 colon
[37] = tested on: LXFL 529 NSCLC
[38] = tested on: HL-60(TB) leukemia
[39] = tested on: NCI-H23 lung
[40] = tested on: OVCAR-8 ovarian
[41] = tested on: K-562 leukemia
[42] = tested on: M14 melanoma
[43] = tested on: SK-OV-3 ovarian
[44] = tested on: SK-MEL-5 melanoma
[45] = tested on: RXF-631 renal
[46] = tested on: HT29 colon
[47] = tested on: ACHN renal
[48] = tested on: NCI-H460 lung
[49] = tested on: NCI-H226 lung
[50] = tested on: MALME-3M melanoma
[51] = tested on: DLD-1 colon
[52] = tested on: DMS 114 small cell lung
[53] = tested on: RPMI-8226 leukemia
[54] = tested on: LOX IMVI melanoma
[55] = tested on: CCRF-CEM leukemia
[56] = tested on: SNB-78 CNS
[57] = tested on: M19-MEL melanoma
[58] = tested on: HOP-18 NSCLC

COC(=O)C1=CC(=O)C(C(=O)Nc2ccc(OC)cc2)C(c2ccccc2)O1 (configuration not stated)
TGI [1]: > 100000 nM
TGI [2]: > 72900 nM
TGI [3]: 42000 nM
TGI [4]: > 100000 nM
TGI [5]: 43100 nM
TGI [6]: > 100000 nM
TGI [7]: > 78700 nM
TGI [8]: 52800 nM
TGI [9]: 48100 nM
TGI [10]: > 77900 nM
TGI [11]: > 75900 nM
TGI [12]: 61400 nM
TGI [13]: 50900 nM
TGI [14]: > 100000 nM
TGI [15]: > 100000 nM
TGI [16]: 51000 nM
TGI [17]: 58800 nM
TGI [18]: 90100 nM
TGI [19]: > 100000 nM
TGI [20]: > 100000 nM
TGI [21]: > 60000 nM
TGI [22]: 37300 nM
TGI [23]: 90600 nM
TGI [24]: 40300 nM
TGI [25]: > 100000 nM
TGI [26]: 51200 nM
TGI [27]: > 100000 nM
TGI [28]: 41500 nM
TGI [29]: > 86300 nM
TGI [30]: > 89600 nM
TGI [31]: > 100000 nM
TGI [32]: 68000 nM
TGI [33]: > 89100 nM
TGI [34]: > 71000 nM
TGI [35]: 73500 nM
TGI [36]: > 100000 nM
TGI [37]: 62400 nM
TGI [38]: > 100000 nM
TGI [39]: 46600 nM
TGI [40]: 96800 nM
TGI [41]: > 100000 nM
TGI [42]: 98700 nM
TGI [43]: 53500 nM
TGI [44]: > 73700 nM
TGI [45]: > 83600 nM
TGI [46]: > 100000 nM
TGI [47]: > 71900 nM
TGI [48]: > 100000 nM
TGI [49]: 55100 nM
TGI [50]: > 84800 nM
TGI [51]: > 100000 nM
TGI [52]: > 67500 nM
TGI [53]: > 100000 nM
TGI [54]: > 72900 nM
TGI [55]: > 100000 nM
TGI [56]: > 81900 nM

CC(C)(C)C#C[P+](c1ccccc1)(c1ccccc1)c1ccccc1
TGI [1]: 2400 nM
TGI [2]: 1910 nM
TGI [3]: 1510 nM
TGI [4]: 4100 nM
TGI [5]: 553 nM
TGI [6]: 5900 nM
TGI [7]: 986 nM
TGI [8]: 1370 nM
TGI [9]: 689 nM
TGI [10]: 1420 nM
TGI [11]: 950 nM
TGI [12]: 1490 nM
TGI [13]: 1790 nM
TGI [14]: 2070 nM
TGI [15]: 843 nM
TGI [16]: 2230 nM
TGI [17]: 1320 nM
TGI [18]: 448 nM
TGI [19]: 397 nM
TGI [20]: 1570 nM
TGI [21]: 2910 nM
TGI [22]: 1480 nM
TGI [23]: 7280 nM
TGI [24]: 1390 nM
TGI [25]: 687 nM
TGI [26]: 1320 nM
TGI [27]: 1450 nM
TGI [28]: 1510 nM
TGI [29]: 1460 nM
TGI [30]: 979 nM
TGI [31]: 611 nM
TGI [32]: 1350 nM
TGI [33]: 877 nM
TGI [35]: 3480 nM
TGI [36]: 1190 nM
TGI [37]: 670 nM
TGI [38]: 86.5 nM
TGI [39]: 1380 nM
TGI [40]: 1670 nM
TGI [41]: 4830 nM
TGI [42]: 1210 nM
TGI [43]: 1810 nM
TGI [44]: 634 nM
TGI [45]: 2630 nM
TGI [46]: 1110 nM
TGI [47]: 10300 nM
TGI [57]: 1140 nM
TGI [48]: 475 nM
TGI [58]: 6340 nM
TGI [49]: 984 nM
TGI [50]: 1680 nM
TGI [51]: 2500 nM
TGI [53]: 212 nM
TGI [54]: 1400 nM
TGI [55]: 699 nM
TGI [56]: 1350 nM
